Data taken from US5961952A, “^99m Tc-tertiary-butyl isonitrile as breast tumor imaging agents” (DuPont Pharmaceuticals Company, priority 1997, dated 1999).

Experiments:
SKBR3 tumor cells = test: Tumor cell washout kinetics (t1/2); type: cell-based, human; conditions: washout from SKBR3 cells; for 1/2 life SKBR3 Tumor Cells: second phase of biphasic kinetics
Procedure: (§1) Two cell lines are grown on cover slips: SKBR3 human breast tumor with known high membrane potential, and an epithelial cell line (CV1) of low membrane potential. Breast tumor cells (SKBR3) and normal epithelial cells (CV-1) are grown on cover slips (5×10^5 cells) and incubated for 60 min with 100 μCi of ^99m Tc-isonitrile. The slips are then incubated for 120 min in nonisotopic medium with repeated rinses. ^99m Tc activity remaining on the slips is determined at 0, 0.5, 1, 1.5, and 2 hr. Results are expressed as the ratio of tumor/normal ^99m Tc activity at each of the times. Values are the mean of 4 slips per cell line.
The half lives were also calculated for the washout of ^99m Tc-isonitriles from SKBR3 cells.

A549 lung tumor cells = test: Uptake assay in A549 lung tumor cells; type: cell-based; conditions: average of two assays, variance 5-20%
Procedure: [Worded in the source for another cell line; this cell line is reported under the same test.] (§2) The cell uptake assay protocol was developed by Delmon-Moingeon et al.^10 Breast tumor cells (SKBR3) were incubated in media over a 2 hr time course with each test sample. This line has been identified as having high membrane potential and has been characterized for uptake of ^99m Tc-sestamibi. […] The first time point (10 min.) was used to compare compounds, as this was felt to represent the non-equilibrium kinetics of delivery experienced in vivo.

[1] = system: SKBR3 human breast tumor cells vs CV-1 normal epithelial cells; test: Washout assay: retention in an adherent cell assay, ratio of tumor (SKBR3)/normal (CV-1); type: cell-based; conditions: for Retention, ratio of tumor/normal 99mTc activity: SKBR3/CV-1, mean of 4 slips per cell line
Procedure: as §1
The washout assay characterizes the retention of compounds having gained access to the cell. A significant feature of this assay is that each cover slip was given a cell count at the end of the assay, and results were corrected for actual cell density. Because of high nonspecific binding to the coverslips, early times during washout are not meaningful, and so actual uptake and pharmacokinetics during the first phase of washout are not available. The results, however, are useful in predicting prolonged retention of compounds after blood levels have cleared.

SKBR3 breast tumor cells = test: Uptake assay in SKBR3 breast tumor cells; type: cell-based, human; conditions: average of two assays, variance 5-20%
Procedure: as §2

[2] = system: breast tumors in c-neu oncomice; test: Pairwise imaging in the c-neu oncomouse; type: in vivo, mouse; conditions: for Mean of Tumor Ratio Test/99mTc-sestamibi +/- Std Dev: paired imaging, c-neu oncomice, 6 animals (14 tumors), ** p < .01
From the text: The pairwise model was designed to directly compare the images of ^99m Tc-TBI with ^99m Tc-sestamibi. The same mouse was imaged at two separate times within 96 hr of each other with the test compound at one time and ^99m Tc-sestamibi at the other. The order of test and reference compound injected were random, but each study included at least an n=2 in each direction.
Female c-neu oncomice (18-30 g) and FVB wildtype mice were used in the pairwise studies. Mice with breast tumors between 1-15 mm were selected for imaging. Animals were anesthetized with sodium pentobarbital (IP) at a dose of 80 mg/kg. Tumors were measured with dial calipers and recorded on mouse templates. The tail was immersed in hot water for 1-2 min, wiped with alcohol, and injected via the tail vein (28 gauge insulin needle) with […] (0.15mL) of prepared ^99m Tc-TBI. The mouse was secured in a supine position on the dissection board with limbs and head extended to expose the chest area for optimal imaging of breast tumors. All image acquisitions were performed using a Picker Digital Dyna Gamma Camera, a Siemens MicroDelta terminal/MAXDELTA system, and a custom-made 1 mm pinhole collimator mounted on the gamma camera. The general static acquisition protocol was employed, using an acquisition matrix of 256×256 pixels, in word mode. The mouse was placed at a distance of 3 cm from the surface of the dissection board to the bottom of the collimator. The anterior view of the upper torso of the animal was acquired at each time point. Consecutive images were collected starting at 10 min post injection. Six 10 min images were collected at the 3 cm distance and one 10 min image was collected of the whole body at 15 cm to determine any tail vein activity. […] Total activity injected was determined by measuring the syringe before and after injection, then corrected for decay back to the time of injection. The pairwise images within each study were normalized for injected dose and regions of interest were taken over breast tumors and the heart. The mean ratio of ^99m Tc-TBI to ^99m Tc-sestamibi in the tumor was reported.

[3] = system: HBL100 nontransformed breast cells; test: Uptake assay in HBL100 nontransformed breast cells; type: cell-based; conditions: average of two assays, variance 5-20%
heart = conditions: Example 5 of Bergstein et al, U.S. Pat. No. 4,988,827; compared with ether isonitriles; cited from earlier work
breast tumors = conditions: J. Nucl. Med. 1993, 34:149P; cited from earlier work
[4] = system: breast adenocarcinomas in c-neu oncomice; test: Dual label whole body autoradiography and histochemistry; type: in vivo, mouse; conditions: c-neu OncoMouse, whole body autoradiography
Procedure: The test compound was given i.v. to a transgenic c-neu mouse (OncoMouse™). This mouse has been genetically constructed to spontaneously produce breast tumors. The tumors develop with the same cribriform pattern as observed in human tumors and have a similar pattern of blood supply.
Female c-neu oncomice bearing breast adenocarcinomas >0.5 cm in diameter were injected i.v. with 1-3 mCi of ^99m Tc-TBI and 5 μCi of C-14 2-deoxy-D-glucose. The mice were sacrificed at 30 min post injection by CO2 inhalation. The carcass was embedded and frozen in embedding medium and 20μ frozen sections were obtained in a cryotome. Autoradiograms of sections and standards were obtained on Kodak SB5 X-ray film. Adjacent sections (5μ) were obtained and stained with hemotoxylin and eosin (H&E). Images were digitized on a LOATS video-based computerized densitometer, and regions of intersect were obtained (% ID/g).

Row | Molecule | 1/2 life SKBR3 Tumor Cells (SKBR3 tumor cells) | Uptake (% of total) (A549 lung tumor cells; A549, 10 minutes) | Uptake (% of total) (A549 lung tumor cells; A549, 20 minutes) | Uptake (% of total) (A549 lung tumor cells; A549, 60 minutes) | Retention, ratio of tumor/normal 99mTc activity ([1]; washout time 0 hr) | Retention, ratio of tumor/normal 99mTc activity ([1]; washout time 0.5 hr) | Retention, ratio of tumor/normal 99mTc activity ([1]; washout time 1 hr) | Retention, ratio of tumor/normal 99mTc activity ([1]; washout time 1.5 hr) | Retention, ratio of tumor/normal 99mTc activity ([1]; washout time 2 hr) | Uptake (% of total) (SKBR3 breast tumor cells; SKBR3, 10 minutes) | Uptake (% of total) (SKBR3 breast tumor cells; SKBR3, 20 minutes) | Uptake (% of total) (SKBR3 breast tumor cells; SKBR3, 60 minutes) | Mean of Tumor Ratio Test/99mTc-sestamibi +/- Std Dev [2] | Uptake (% of total) ([3]; HBL100, 10 minutes) | Uptake (% of total) ([3]; HBL100, 20 minutes) | Uptake (% of total) ([3]; HBL100, 60 minutes) | further results
1 | ^99m Tc-tertiary-butyl isonitrile complex [TBI] | 656.0 | 49.8% | 45.3% | 43.1% | 12 | 24 | 31 | 35 | 37 | 71.1% | 68.1% | 67% | 1.33 +/-0.43 | 61.3% | 62.4% | 64.3% | increase in t1/2 (longer retention) compared with 99mTc-sestamibi (SKBR3 tumor cells): 6 fold; retention in tumor cells during washout ([1]; tumor cell culture, in words): prolonged retention in tumor cells during washout; tumor uptake and retention in vivo, relative to 99mTc-sestamibi ([2]; in words): significantly increased tumor uptake and retention in vivo; increase in tumor retention/uptake compared with 99mTc-sestamibi ([2]; pairwise imaging, c-neu OncoMouse, p<0.01): 133%; heart/liver and heart/lung uptake ratios (heart): low heart/liver and heart/lung uptake ratios
2 | [C-]#[N+]CC(C)(C)OC.[C-]#[N+]CC(C)(C)OC.[C-]#[N+]CC(C)(C)OC.[C-]#[N+]CC(C)(C)OC.[C-]#[N+]CC(C)(C)OC.[C-]#[N+]CC(C)(C)OC.[Tc] [MIBI, reference compound] | 120.5 | 0.7% | 2.5% | 7.3% | 38 | 36 | 34 | 29 | 26 | 1.8% | 4.5% | 17.2% | 1 | 0.9% | 3.4% | 8.8% | sensitivity for imaging breast tumors (breast tumors): > 90%; specificity for imaging breast tumors (breast tumors): > 70%; correlation between breast tumor retention and tissue viability [4]: strong correlation
